The target in test [1] is T1, VRAC (SWELL1/LRRC8A-containing volume-regulated anion channel) (Homo sapiens, UniProt Q8IWT6).
T1 sequence (Q8IWT6 1-810): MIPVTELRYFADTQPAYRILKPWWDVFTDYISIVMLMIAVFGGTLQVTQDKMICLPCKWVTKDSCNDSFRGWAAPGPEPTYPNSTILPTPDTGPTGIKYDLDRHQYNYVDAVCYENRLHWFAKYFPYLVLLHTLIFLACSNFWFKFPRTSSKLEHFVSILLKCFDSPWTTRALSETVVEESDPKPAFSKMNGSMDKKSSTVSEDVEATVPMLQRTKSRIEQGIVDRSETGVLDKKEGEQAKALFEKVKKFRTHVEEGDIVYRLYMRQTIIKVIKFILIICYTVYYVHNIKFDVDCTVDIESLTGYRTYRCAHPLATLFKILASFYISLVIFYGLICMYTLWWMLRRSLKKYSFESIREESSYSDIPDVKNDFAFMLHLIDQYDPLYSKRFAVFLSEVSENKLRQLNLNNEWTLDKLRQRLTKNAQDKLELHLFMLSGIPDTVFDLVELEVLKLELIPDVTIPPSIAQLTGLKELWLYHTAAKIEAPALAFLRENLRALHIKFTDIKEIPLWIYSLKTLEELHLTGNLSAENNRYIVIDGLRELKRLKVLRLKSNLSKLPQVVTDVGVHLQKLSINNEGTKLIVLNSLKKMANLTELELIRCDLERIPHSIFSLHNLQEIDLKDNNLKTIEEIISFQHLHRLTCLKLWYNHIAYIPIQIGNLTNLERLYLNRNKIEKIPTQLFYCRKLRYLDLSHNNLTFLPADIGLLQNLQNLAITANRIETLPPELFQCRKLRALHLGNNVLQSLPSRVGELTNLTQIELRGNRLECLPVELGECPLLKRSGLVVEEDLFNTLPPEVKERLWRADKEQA
The experiment in a line: whole-cell patch clamp of hypotonicity-induced VRAC currents. It is filed as cell-based. In general terms: In patch-clamp work, channel activity is measured electrically.

Test [2] has as its target T2, VRAC (Swell1/Lrrc8a-containing volume-regulated anion channel) (Mus musculus, UniProt Q80WG5).
T2 sequence (Q80WG5 1-810): T1 sequence (Q8IWT6 1-810) with P75S, G76S, I86V, I276A, A591V, I715V, T722A, N792S
The experiment in a line: whole-cell patch clamp of hypotonicity-induced VRAC currents in BV2 microglia. It is filed as cell-based.

What is called IC50 is the midpoint of a concentration-inhibition curve. A low value points to inhibition by little substance.

Molecules are shown by their SMILES. Numbering of substitutions follows the chain as printed.

`O=c1oc2ccccc2c(O)c1Cc1c(O)c2ccccc2oc1=O` [dicumarol]: the values for the IC50 in test [1] and in test [2] were 3.8 µM and 4.1 µM, respectively.
`COc1cc(C(=O)NS(=O)(=O)c2ccccc2C)ccc1Cc1cn(C)c2ccc(NC(=O)OC3CCCC3)cc12` [zafirlukast] gave an IC50 in test [1] of 4.9 µM.

Values taken from publication PMC10058245 (Science Advances, 2023).
